# Test: Compound was tested for the inhibition of [3H]-thymidine uptake in CHO p-5 cells transfected with human Dopamine receptor D4.2
smiles,measurement,value
Cc1ccc(N2CCN(Cc3ccc4ccc(=O)oc4c3)CC2)cc1Cl [7-[4-(3-Chloro-4-methyl-phenyl)-piperazin-1-ylmethyl]-chromen-2-one],IC50,5.4 nM
Cc1ccc(N2CCN(Cc3ccc4oc(=O)ccc4c3)CC2)cc1 [6-(4-p-Tolyl-piperazin-1-ylmethyl)-chromen-2-one],IC50,> 1000 nM
